PMC11470957, “Principles of paralog-specific targeted protein degradation engaging the C-degron E3 KLHDC2” (Nature Communications, 2024)
Values joined by “and” are separate entries in the source; they are usually repeats but may differ in a detail not shown here. Equal entries are not always repeated.

Target: BRD4 (Homo sapiens, UniProt O60885)
Assay: Western blot of BRD4 levels after cellular dosing
Conditions: for BRD4 (DMSO = 100): Rep1, Rep2

COC(=O)CNC(=O)Cc1csc(-c2ccc3cccc(OCCN4CCN(C(=O)C[C@@H]5N=C(c6ccc(Cl)cc6)c6c(sc(C)c6C)-n6c(C)nnc65)CC4)c3c2)n1 [SJ46420]
BRD4 level relative to DMSO (100%) (22Rv1, 0.16µM, 24 h, Fig S6f): 105 +/- 5.8% | BRD4 level relative to DMSO (100%) (22Rv1, 0.63µM, 24 h, Fig S6f): 101 +/- 7.2% | BRD4 level relative to DMSO (100%) (22Rv1, 1.3µM, 24 h, Fig S6f): 89 +/- 2.9% | BRD4 level relative to DMSO (100%) (22Rv1, 2.5µM, 24 h, Fig S6f): 88 +/- 11% | BRD4 level relative to DMSO (100%) (22Rv1, 5µM, 24 h, Fig S6f): 83 +/- 10% | BRD4 level relative to DMSO (100%) (22Rv1, 10µM, 24 h, Fig S6f): 68 +/- 15% | Dmax (22Rv1, read-out: BRD4 Dmax, 22Rv1, 24 h dose): 30% | BRD4 level relative to DMSO (100%) (293T, 2.5µM, 24 h, Fig S6a): 98 +/- 5.3% | BRD4 level relative to DMSO (100%) (293T, 5µM, 24 h, Fig S6a): 79 +/- 6.6% | BRD4 level relative to DMSO (100%) (AU565, 0.2µM, 8 h, Fig S6c): 82 +/- 4.7% | BRD4 level relative to DMSO (100%) (AU565, 1µM, 8 h, Fig S6c): 53 +/- 5.1% | BRD4 level relative to DMSO (100%) (AU565, 5µM, 8 h, Fig S6c): 4.1 +/- 1.3% | BRD4 level, Western blot quantification (DMSO = 100) (Fig 6b, KO/Rescue, 5 uM): 91.0765 and 107.689 | BRD4 level, Western blot quantification (DMSO = 100) (Fig 6b, U2OS, 5 uM): 77.4849 and 71.6749 | BRD4 level, Western blot quantification (DMSO = 100) (Fig 6c, 1 uM): 92.7102 and 86.955 | BRD4 level, Western blot quantification (DMSO = 100) (Fig 6d, 1 uM): 67.4942 and 82.9736 | BRD4 level, Western blot quantification (DMSO = 100) (Fig 6d, 1uM together with 1uM MLN4924): 118.408 and 100.267 | BRD4 level, Western blot quantification (DMSO = 100) (Fig S6a, 293T cells, 2.5 uM): 94.5347 and 102.135 | BRD4 level, Western blot quantification (DMSO = 100) (Fig S6a, 293T cells, 5 uM): 74.6014 and 84.7353 | BRD4 level, Western blot quantification (DMSO = 100) (Fig S6b, MDA-MB468 Cells, 2 uM): 86.0887 and 95.6433 | BRD4 level, Western blot quantification (DMSO = 100) (Fig S6b, MDA-MB468 Cells, 5 uM): 75.9577 and 82.1258 | BRD4 level, Western blot quantification (DMSO = 100) (Fig S6b, MDA-MB468 Cells, 10 uM): 65.8655 and 71.3135 | BRD4 level, Western blot quantification (DMSO = 100) (Fig S6c, AU565 Cells, 0.2 uM): 78.2951 and 85.4236 | BRD4 level, Western blot quantification (DMSO = 100) (Fig S6c, AU565 Cells, 1 uM): 49.0527 and 56.2352 | BRD4 level, Western blot quantification (DMSO = 100) (Fig S6c, AU565 Cells, 5 uM): 3.1923 and 5.662 | BRD4 level, Western blot quantification (DMSO = 100) (Fig S6e, PC3 KO/rescue Dose Response, 0.156 uM): 98.9143 and 85.6296 | BRD4 level, Western blot quantification (DMSO = 100) (Fig S6e, PC3 KO/rescue Dose Response, 0.313 uM): 95.5722 and 70.9157 | BRD4 level, Western blot quantification (DMSO = 100) (Fig S6e, PC3 KO/rescue Dose Response, 0.625 uM): 77.9263 and 60.6542 | BRD4 level, Western blot quantification (DMSO = 100) (Fig S6e, PC3 KO/rescue Dose Response, 1.25 uM): 36.0358 and 57.3958 | BRD4 level, Western blot quantification (DMSO = 100) (Fig S6e, PC3 KO/rescue Dose Response, 2.5 uM): 28.2357 and 25.3138 | BRD4 level, Western blot quantification (DMSO = 100) (Fig S6e, PC3 KO/rescue Dose Response, 5 uM): 3.953 and 2.975 | BRD4 level, Western blot quantification (DMSO = 100) (Fig S6e, PC3 KO/rescue Dose Response, 10uM): 0.3603 and 0.6573 | BRD4 level, Western blot quantification (DMSO = 100) (Fig S6f, 22RV1 KO/rescue Dose Response, 0.156 uM): 101.401 and 109.713 | BRD4 level, Western blot quantification (DMSO = 100) (Fig S6f, 22RV1 KO/rescue Dose Response, 0.313 uM): 109.261 and 111.474 | BRD4 level, Western blot quantification (DMSO = 100) (Fig S6f, 22RV1 KO/rescue Dose Response, 0.625 uM): 106.365 and 96.1732 | BRD4 level, Western blot quantification (DMSO = 100) (Fig S6f, 22RV1 KO/rescue Dose Response, 1.25 uM): 91.1283 and 87.0112 | BRD4 level, Western blot quantification (DMSO = 100) (Fig S6f, 22RV1 KO/rescue Dose Response, 2.5 uM): 95.8637 and 80.8873 | BRD4 level, Western blot quantification (DMSO = 100) (Fig S6f, 22RV1 KO/rescue Dose Response, 5 uM): 91.3116 and 76.191 | BRD4 level, Western blot quantification (DMSO = 100) (Fig S6f, 22RV1 KO/rescue Dose Response, 10uM): 79.6577 and 57.9117 | BRD4 level, Western blot quantification (DMSO = 100) (Fig S6g, SKBR3 Time course, 1 uM, 2hr): 104.311 and 100.652 | BRD4 level, Western blot quantification (DMSO = 100) (Fig S6g, SKBR3 Time course, 1 uM, 4hr): 75.4286 and 82.2353 | BRD4 level, Western blot quantification (DMSO = 100) (Fig S6g, SKBR3 Time course, 1 uM, 8hr): 78.3987 and 72.5234 | BRD4 level, Western blot quantification (DMSO = 100) (Fig S6g, SKBR3 Time course, 5 uM, 2hr): 109.415 and 100.234 | BRD4 level, Western blot quantification (DMSO = 100) (Fig S6g, SKBR3 Time course, 5 uM, 4hr): 59.7954 and 68.2545 | BRD4 level, Western blot quantification (DMSO = 100) (Fig S6g, SKBR3 Time course, 5 uM, 8hr): 59.199 and 52.2362 | BRD4 level, Western blot quantification (DMSO = 100) (Fig S6i, SKBR3, 5uM): 72.6081 and 84.277 | BRD4 level, Western blot quantification (DMSO = 100) (Fig S6i, U2OS, 5uM): 157.053 and 196.781 | BRD4 level, Western blot quantification (DMSO = 100) (Fig S6h, U2OS Time course, 5uM, 2hr): 126.968 and 100.342 | BRD4 level, Western blot quantification (DMSO = 100) (Fig S6h, U2OS Time course, 5uM, 4hr): 91.1641 and 100.137 | BRD4 level, Western blot quantification (DMSO = 100) (Fig S6h, U2OS Time course, 5uM, 8hr): 65.7267 and 72.5334 | BRD4 level, Western blot quantification (DMSO = 100) (Fig S6h, U2OS Time course, 5uM, 24hr): 56.1641 and 64.2352 | BRD4 level, Western blot quantification (DMSO = 100) (Fig S6d, U2OS KO/rescue Dose Response, 0.156 uM): 81.019 and 75.43 | BRD4 level, Western blot quantification (DMSO = 100) (Fig S6d, U2OS KO/rescue Dose Response, 0.313 uM): 75.0042 and 85.343 | BRD4 level, Western blot quantification (DMSO = 100) (Fig S6d, U2OS KO/rescue Dose Response, 0.625 uM): 69.2459 and 75.342 | BRD4 level, Western blot quantification (DMSO = 100) (Fig S6d, U2OS KO/rescue Dose Response, 1.25 uM): 72.3683 and 63.23 | BRD4 level, Western blot quantification (DMSO = 100) (Fig S6d, U2OS KO/rescue Dose Response, 2.5 uM): 72.6616 and 79.232 | BRD4 level, Western blot quantification (DMSO = 100) (Fig S6d, U2OS KO/rescue Dose Response, 5 uM): 65.5064 and 72.323 | BRD4 level relative to DMSO (100%) (MDA-MB-468, 2.5µM, 24 h, Fig S6b): 90 +/- 6.3% | BRD4 level relative to DMSO (100%) (MDA-MB-468, 5µM, 24 h, Fig S6b): 78 +/- 4.3% | BRD4 level relative to DMSO (100%) (MDA-MB-468, 10µM, 24 h, Fig S6b): 68 +/- 3.6% | BRD4 level relative to DMSO (100%) (PC3, 0.16µM, 24 h, Fig S6e): 78 +/- 4.1% | BRD4 level relative to DMSO (100%) (PC3, 0.31µM, 24 h, Fig S6e): 80 +/- 7.3% | BRD4 level relative to DMSO (100%) (PC3, 0.63µM, 24 h, Fig S6e): 72 +/- 4.3% | BRD4 level relative to DMSO (100%) (PC3, 1.3µM, 24 h, Fig S6e): 67 +/- 6.5% | BRD4 level relative to DMSO (100%) (PC3, 2.5µM, 24 h, Fig S6e): 75 +/- 4.7% | BRD4 level relative to DMSO (100%) (PC3, 5µM, 24 h, Fig S6e): 68 +/- 4.8% | BRD4 level relative to DMSO (100%) (PC3, 10µM, 24 h, Fig S6e): 44 +/- 5.7% | BRD4 (DMSO = 100) (PC3 cells, Log SJ46420 1.89279): 90.1763 and 93.433 | BRD4 (DMSO = 100) (PC3 cells, Log SJ46420 4): 40.11 and 48.232 | BRD4 level relative to DMSO (100%) (SKBR3, 1µM, 2hr, Fig S6g): 102 +/- 3.1% | BRD4 level relative to DMSO (100%) (SKBR3, 1µM, 4hr, Fig S6g): 78 +/- 4.7% | BRD4 level relative to DMSO (100%) (SKBR3, 1µM, 8hr, Fig S6g): 75 +/- 4.5% | BRD4 level relative to DMSO (100%) (SKBR3, 5µM, 2hr, Fig S6g): 104 +/- 6.7% | BRD4 level relative to DMSO (100%) (SKBR3, 5µM, 4hr, Fig S6g): 63 +/- 5.8% | BRD4 level relative to DMSO (100%) (SKBR3, 5µM, 4hr, Fig S6j): 78 +/- 8.2% | BRD4 level relative to DMSO (100%) (SKBR3, 5µM, 8hr, Fig S6g): 55 +/- 5.1% | BRD4 level relative to DMSO (100%) (U2OS DC2KO (KLHDC2 knockout), 5µM, 24 h, Fig 6b): 99 +/- 12% | BRD4 (DMSO = 100) (U2OS KO/Rescue cells, Log SJ46420 1.59176): 106.334 and 102.232 | BRD4 level relative to DMSO (100%) (U2OS KO/Rescue, 0.16µM, 24 h, Fig S6d): 92 +/- 9.3% | BRD4 level relative to DMSO (100%) (U2OS KO/Rescue, 0.31µM, 24 h, Fig S6d): 83 +/- 16% | BRD4 level relative to DMSO (100%) (U2OS KO/Rescue, 0.63µM, 24 h, Fig S6d): 69 +/- 12% | BRD4 level relative to DMSO (100%) (U2OS KO/Rescue, 1µM, 24 h, Fig 6c): 90 +/- 4.1% | BRD4 level relative to DMSO (100%) (U2OS KO/Rescue, 1µM, 24 h, Fig 6d): 75 +/- 10% | BRD4 level relative to DMSO (100%) (U2OS KO/Rescue, 1.3µM, 24 h, Fig S6d): 46 +/- 15% | BRD4 level relative to DMSO (100%) (U2OS KO/Rescue, 2.5µM, 24 h, Fig S6d): 26 +/- 2.1% | BRD4 level relative to DMSO (100%) (U2OS KO/Rescue, 5µM, 24 h, Fig S6d): 3.4 +/- 0.69% | BRD4 Dmax (U2OS KO/Rescue, 24 h dose): ~ 100% | BRD4 level relative to DMSO (100%) (U2OS KO/Rescue, concentration not printed (line after 5µM), 24 h, Fig S6d): 0.51 +/- 0.21% | BRD4 level relative to DMSO (100%) (U2OS, 5µM, 4hr, Fig S6h): 96 +/- 7.2%
